Earlier results as cited in US20050154016A1, “Preventives for hiv infection” (priority 2002, published 2005).

System: R5 HIV-1
Conditions: reported in non-patent document 18

## Cc1ccc(-c2ccc3c(c2)C=C(C(=O)Nc2ccc(C[N+](C)(C)C4CCOCC4)cc2)CCC3)cc1.[Cl-] [TAK-779]
  inhibitory effect against HIV-1 infection caused by R5 HIV-1: exhibits an inhibitory effect
